The values below come from patent publication US20090074845A1, “TRANSDERMAL ACTIVE PRINCIPLE DELIVERY MEANS” (priority 2005, published 2009).

What is called inhibition is the percentage by which the read-out fell short of the control. In general, IC50 refers to the concentration that gives 50% inhibition. In general, solubility refers to how much of the substance goes into solution per volume.

In brackets after ≈: the same amount, converted by molar mass. Read-outs that look alike come from different tables or passages of the source.

For data set [1], the system named is Herpes simplex virus (HSV). It counts as cell-based. The procedure:
[…]. The cardiac glycosides Digoxin, Digitoxin, Lanoxin and Strophanthin G were also tested.
Using Herpes simplex virus (HSV), 50% plaque inhibitory dose (1D50) were established using the standard plaque inhibition assay. Various solvents were required to facilitate testing and these were sometimes detrimental to tissue culture, depending upon their concentration. […]; experimental conditions in which solvent toxicity was excluded.
(§1) These compounds (Acetazolamide, Tolbutamide and Hydrochiorthiazide) were further tested using alternative solvents in the same test system (ie the plaque inhibition assay) and others (Bumetanide, Torasemide, Tolbutamide and Hydrochlothiazide) in a more sensitive test for ICVT activity in which the effects on virus yields were determined.

In data set [2] the test system is Herpes simplex virus (HSV). The data set can be described thus: HSV virus yield test for ICVT activity. Type of data set: cell-based. The procedure: as §1
Data set [3] can be described thus: Diffusional release of D and F from Collodions. Type of data set: physicochemical. The procedure: Drug mix (for composition see table 2) 0.02 g (a stock was made) was weighted on an analytical balance (accurate to 5 decimal places) and added directly to 10 ml of Collodion and 10 ml of ethanol in a McCartney bottle. The molar ratios used were F:D; 1:1, 1:2.5 (2:5) and 1:10 because a smaller amount of drug mix was used, compared to the drug-in-adhesive and this allowed measurable amounts of F to be used. Each of the McCartney bottles was vortexed for three minutes and left to rotate on a blood serum rotator overnight, to ensure that the mixture was homogeneous and that any air bubbles present had dispersed. Control Collodions were also prepared by the same method, however, no drug mix was added.
Different molar ratios of the two drugs were used to determine affect upon release rate and the extent of the release of each drug. The Collodion, 200 μl, was dispensed to the bottom of general 7 ml glass screw cap vials using a Gilson Pipette and left to dry for three hours. Then 2 ml of dissolution medium, again de-gassed EtOH/water 10:90, was added to each vial. The amount of receptor phase sampled and replenished was 200 μl, with a total of five replicates performed for each treatment.
The injection volume of each sample was 20 μl. […] Data were acquired using Agilent software.

The subject of data set [4] is type 2 herpes simplex strain 3345. The data set can be described thus: Inhibition of HSV2 replication in African green monkey kidney cells (Example 3). It counts as cell-based, herpes simplex virus. The note with it: for inhibition at 500 µg/mL / inhibition at 1000 µg/mL: Digoxin 0 mcg/ml, read-out: Inhibition of virus replication; for inhibition at 500 µg/mL: Furosemide 0.5 mg/ml; for inhibition at 1000 µg/mL: Furosemide 1.0 mg/ml; for inhibition at 15 µg/mL: Digoxin 15 mcg/ml; for inhibition at 15 µg/mL / inhibition at 30 µg/mL: Furosemide 0 mg/ml; for inhibition at 30 µg/mL: Digoxin 30 mcg/ml. An excerpt: The compositions were applied to different types of vero cells (African green monkey kidney cells and BHK1 cells) and infected with type 2 herpes simplex virus (strains 3345 and 180) at low, intermediate, and high multiplicities of infection (MOI). Inhibition of virus replication was scored on the scale:
The following results were obtained using African green monkey kidney cells and type 2 herpes simplex strain 3345: […]

The subject of another data set is Herpes simplex virus. The data set can be described thus: 50% plaque inhibitory concentration, Herpes simplex virus in MRC5.
Another data set relates to Varicella-Zoster virus. The data set can be described thus: 50% plaque inhibitory concentration, Varicella-Zoster virus in MRC5.
The subject of a further data set is Adenovirus. The data set can be described thus: 50% plaque inhibitory concentration, Adenovirus in A549. The note with it: unidentified adenovirus.
A further data set relates to Cytomegalovirus. The data set can be described thus: 50% plaque inhibitory concentration, Cytomegalovirus in MRC5.
Data set [5] deals with MRC5 cells. The data set can be described thus: MRC5 cell morphology (phase contrast microscopy). The note with it: Furosemide 1.0 mg/ml; Digoxin 0.05 ug/ml; combined dosage at individual ID 50; 72 hours.
Data set [6] is described as follows: Drug release from Glue 1 mass-ratio patches into mobile phase.
The test system of data set [7] is MRC5 cells. The data set can be described thus: MRC5 cell replication. Conditions: Furosemide 1.0 mg/ml; Digoxin 0.05 ug/ml; both at VZV ID50 concentrations; 72 hours.
For data set [8] the following is noted: patches F:D 1:1 across pig skin.
Description: The ears were washed under running water and full-thickness dorsal skin was separated from the cartilage via blunt dissection using a scalpel, then hair was removed using an electric razor. The skin was cut into samples of approximately 2 cm^2 and visually inspected to ensure that each piece was free from abrasions and blood vessels. Specimens were then stored in a crease free state on aluminium foil at −20° C. until required.
The skin samples were removed from the freezer and left to fully defrost. The donor and receptor compartments of Franz-type diffusion cells (see FIG. 13) were greased, to provide a tight seal and prevent any leakage from the receptor phase. The polymer-lined paper was removed from the patches to expose one side and firmly pressed centrally onto the surface of each piece of skin. After adhesion was established, the skin was mounted onto the flange of a receptor compartment (nominal volume 2.5 ml) of the diffusion sell, ensuring that the patch was placed directly over the flange aperture. […]
D and F were detected using an ultraviolet (UV) detector set at wavelength 220 nm. […]
Chromatogram peaks were integrated manually, and the data corrected for dilution effects. Cumulative release was determined and plotted against the square route of time to determine release rates. Cumulative permeation data were determined and plotted against time to order to obtain flux. […]
A short description of data set [9]: Diffusional release of D and F from drug-in-adhesive patches. Type of data set: physicochemical.
The conditions of data set [10]: 72 hours.
Description: The receptor fluid was stirred continuously to ensure a homogenous receptor solution.
The drug that accumulated in the skin was also measured. The drug that was present in a 2 cm diameter cross section of skin was calculated for all four formulations.
For data set [11] the following is noted: cited from earlier work.
Data set [12] is described as follows: Drug permeation through porcine ear skin (Franz diffusion cells).
Data set [13] deals with Varicella Zoster Virus (Ellen strain).
Data set [14] has as its system Herpes simplex virus (HSV). The data set can be described thus: Comparative ICVT-ivities of Digoxin, Digitoxin and Lanoxin. It counts as cell-based. The note with it: for ID50: 250 ug per ml stock solutions, powder in 70% ethanol, Lanoxin in 10% ethanol; for ICVT-ivity of saturated solution compared with standard: saturated solutions in 90% ethanol.
The nature of data set [15]: Solubility of the drugs in a range of solvents.
Description: A study was performed that measure the solubility of the drugs in a range of solvents.
Data set [16] deals with MRC5 cells. Conditions: uninfected cells; drug(s) at VZV ID 50 concentrations.
The mark [17] stands for this setting: Human alphaherpesvirus 2, HIGH MOI HSV2.
Setting [18] is: Human alphaherpesvirus 2, INT. MOI HSV2.
The mark [19] stands for this setting: Human alphaherpesvirus 2, LOW MOI HSV2.
[20] abbreviates: Human alphaherpesvirus 2, read-out: Inhibition of virus replication, HIGH MOI HSV2.
Setting [21] is: Human alphaherpesvirus 2, read-out: Inhibition of virus replication, LOW MOI HSV2.

`CCCCNC(=O)NS(=O)(=O)c1ccc(C)cc1` [Tolbutamide]: the “ICVT activity (in words)” value in data set [1] (HSV plaque inhibition assay) is “borderline”. The “concentration at which HSV yield reduced to zero” value in data set [2] (Solvent: PEG 10 mg/ml) and in data set [2] (Solvent: PG 10 mg/ml) was “HSV yield reduced to zero 300 μg/ml” each time.

On to `NS(=O)(=O)c1cc(C(=O)O)c(NCc2ccco2)cc1Cl` [Furosemide, 4-chloro-N-furfuryl-5-sulfamoylanthranilic acid], for which the “Maximal dose released (furosemide)” value in data set [3] (from Collodion after 48 hr) was roughly 6.02 μg cm^−2. For the same compound, in [1] (HSV plaque inhibition assay), the “ICVT activity (in words)” value is “potent ICVT activity”. Further, the inhibition at 500 µg/mL amounted to 0% in data set [4] (setting [17]), 20% in data set [4] (setting [18]) and 20% in data set [4] (setting [19]). Further, the inhibition at 1000 µg/mL in data set [4] (setting [17]) worked out at 40%; in [4] (setting [18]), 60%; in data set [4] (setting [19]), 60%. The IC50 in the data set with Herpes simplex virus (MRC5, read-out: Furosemide IC50) was 600 µg/mL (≈ 1810 µM); in the data set on Varicella-Zoster virus (Human alphaherpesvirus 3, MRC5, read-out: Furosemide IC50) it was 500 µg/mL (≈ 1510 µM); in the data set on Adenovirus (A549, read-out: Furosemide IC50) it was 300 µg/mL (≈ 907 µM); with Cytomegalovirus (Human betaherpesvirus 5, MRC5, read-out: Furosemide IC50), 600 µg/mL (≈ 1810 µM).

With `C[C@H]1O[C@@H](O[C@H]2[C@@H](O)C[C@H](O[C@H]3[C@@H](O)C[C@H](O[C@H]4CC[C@@]5(C)[C@H](CC[C@@H]6[C@@H]5C[C@@H](O)[C@]5(C)[C@@H](C7=CC(=O)OC7)CC[C@]65O)C4)O[C@@H]3C)O[C@@H]2C)C[C@H](O)[C@@H]1O` [Digoxin], the “effect on MRC5 cell morphology” value in the data set on MRC5 cells [5] is “no adverse effect on cell morphology”. In addition, the “permeation coefficient for the patch” value in [6] came out at 0.16 ×10⁻⁶ cm/s. In the data set on MRC5 cells [7], the “uninfected MRC5 cell replication” value was “replicated to normal yields”. Further, the Apparent flux maximum in data set [8] stood at 3.499 μgcm^−2 h^−1. For the same compound, the Q24 permeation % in data set [8] (% of loading) is on record as 0.12% and the Q24 permeation % (Collodion F:D 1:1 across pig skin, % of loading) was found to be 5.39%. The “maximum mass/area of digoxin released (maximal dose)” value in data set [9] was roughly 136.18 μgcm^−2. Besides, the “maximal dose of digoxin released” value in data set [3] (from Collodion after 24 hr) is roughly 34.01 μg cm^−2. For the same compound, the “ICVT activity (in words)” value in data set [1] is listed as “potent ICVT activity”. Where the note is “Collodion”, the “mass/area that permeated the skin” value worked out at 8.02 μg cm^−2. Further, the Apparent maximum flux (Collodion F:D 1:1 across pig skin) was 0.313 μgcm^−2 h^−1. The AMF (Collodion, calculated between 12-24 hr) is 0.313 μg cm^−2 h^−1. The inhibition at 15 µg/mL in data set [4] (setting [20]) is 0%; in [4] (Human alphaherpesvirus 2, read-out: Inhibition of virus replication, INT. MOI HSV2) it was 0%; in data set [4] (setting [21]), 0%. Further, the results for the inhibition at 30 µg/mL in data set [4] (setting [20]) and in data set [4] (setting [21]) were 0% and 60%, respectively. Also, the “concentration at which the skin was saturated” value came to 12.73 μg/cm^2 in [10] and 40 ug over 3.14 cm^2 in data set [10] (2 cm diameter skin section). Besides, the solubility result in data set [11] (in diluted (50%) alcohol and in chloroform) was “slightly soluble”; in [11] (in pyridine), “freely soluble”; in data set [11] (in water and in ether), “practically insoluble”; in [15] (Solvent Methanol), 8200 µg/mL (≈ 10500 µM); in data set [15] (organic solvent or mixture, Solubility, Solvent Ethanol), 5080 µg/mL (≈ 6500 µM); in [15] (organic solvent or mixture, Solubility, Solvent Ethyl acetate) it was 20400 µg/mL (≈ 26100 µM). In data set [12] (for flux of 1.04 μg per cm^2 per hour (25 μg per day per cm^2)), this compound registered a loading dose required of 6004.5 μg per cm^3. Also, in data set [12] (from plot of patch concentration vs steady state flux through skin), the “initial concentration within the patch for the flux to be greater than zero” value stood at 804.5 µg/mL. Besides, the IC50 in the data set on Herpes simplex virus (MRC5, read-out: Digixin IC50) worked out at 0.025 µg/mL (≈ 0.032 µM); with Varicella-Zoster virus (Human alphaherpesvirus 3, MRC5, read-out: Digixin IC50), 0.05 µg/mL (≈ 0.064 µM); in the data set with Adenovirus (A549, read-out: Digixin IC50) it was 0.015 µg/mL (≈ 0.0192 µM); with Cytomegalovirus (Human betaherpesvirus 5, MRC5, read-out: Digixin IC50), 0.02 µg/mL (≈ 0.0256 µM). The inhibition in data set [13] is roughly 50%. Besides, the “Virus particles per cell” value in the data set with feline herpesvirus (Feline herpes virus, drug(s) at IC50, No Drug 50) is reported as 0.75. Besides, the “remaining low level of virus replication” value in the data set with feline herpesvirus (feline herpesvirus, drug at IC50) is 0.5%. Further, the “production of infectious virus reduced by” value with feline herpesvirus (feline herpesvirus, drug(s) at IC50) was found to be 98.5%. In addition, in data set [14], the ID50 turned out to be 60 ng per ml. Besides, the “ICVT-ivity of saturated solution compared with standard” value in data set [14] is “as effective as Lanoxin”. Further, the “MRC5 cell metabolism (MTT assay)” value in the data set with MRC5 cells [16] is on record as “normal levels of metabolism”.

`Cc1cccc(Nc2ccncc2S(=O)(=O)NC(=O)NC(C)C)c1` [Torasemide]: the HSV yield entry in data set [2] (at 90 μg/ml, Solvent: NaOH 1% aqueous 5 mg/ml) was “HSV yield unaffected at 90 μg/ml”.

Turning to `C[C@@H]1O[C@@H](O[C@H]2C[C@@H](O)[C@]3(CO)[C@H]4[C@H](O)C[C@]5(C)[C@@H](C6=CC(=O)OC6)CC[C@]5(O)[C@@H]4CC[C@]3(O)C2)[C@H](O)[C@H](O)[C@H]1O` [Strophanthin G], in data set [1] (1 mg/ml, Solvent: Aqueous), the “remark on toxicity at the HSV Plaque ID50” value is recorded as “Cytotoxic”.

`NS(=O)(=O)c1cc2c(cc1Cl)NCNS2(=O)=O` [Hydrochiorothiazide, Hydrochlorothiazide]: the “ICVT activity (in words)” value in data set [1] (HSV plaque inhibition assay) is reported as “borderline”. In data set [2] (Solvent: NaOH 1% aqueous 10 mg/ml), the “concentration at which HSV yield reduced to zero” value is listed as “HSV yield reduced to zero at 600 ug/ml”.

Take `C[C@H]1O[C@@H](O[C@H]2[C@@H](O)C[C@H](O[C@H]3[C@@H](O)C[C@H](O[C@H]4CC[C@@]5(C)[C@H](CC[C@@H]6[C@@H]5CC[C@]5(C)[C@@H](C7=CC(=O)OC7)CC[C@]65O)C4)O[C@@H]3C)O[C@@H]2C)C[C@H](O)[C@@H]1O` [Digitoxin]: the “ICVT activity (in words)” value in data set [1] (HSV plaque inhibition assay) is recorded as “potent ICVT activity”. Moreover, in data set [14], the ID50 was 30 ng per ml and the “ICVT-ivity of saturated solution compared with standard” value was “more effective than Digoxin”.

In the case of `CC(=O)Nc1nnc(S(N)(=O)=O)s1` [Acetazolamide], in data set [1] (HSV plaque inhibition assay), the “ICVT activity (in words)” value was “borderline”.
